Measurements taken from patent publication US20100075942A1, “N-PHENYL-4-PYRIDIN-2-YL-BENZAMIDE DERIVATIVES AS HISTONE DEACYLASE (HDAC) INHIBITORS FOR THE TREATMENT OF CANCER” (ASTRAZENECA AB, priority 2005, published 2010).

How the values were obtained:
recombinant human HDAC1 = target: T1, recombinant human HDAC1 (Homo sapiens, UniProt Q13547); assay: In vitro enzyme assay of recombinant HDAC1 (Test (a)); assay type: biochemical; conditions: recombinant human HDAC1 produced in Hi5 insect cells; acetylated histone H4 peptide, Fluor de Lys
T1 construct: FLAG (C); made in house; host or cells: Hi5 insect cells
T1 sequence (Q13547 whole entry): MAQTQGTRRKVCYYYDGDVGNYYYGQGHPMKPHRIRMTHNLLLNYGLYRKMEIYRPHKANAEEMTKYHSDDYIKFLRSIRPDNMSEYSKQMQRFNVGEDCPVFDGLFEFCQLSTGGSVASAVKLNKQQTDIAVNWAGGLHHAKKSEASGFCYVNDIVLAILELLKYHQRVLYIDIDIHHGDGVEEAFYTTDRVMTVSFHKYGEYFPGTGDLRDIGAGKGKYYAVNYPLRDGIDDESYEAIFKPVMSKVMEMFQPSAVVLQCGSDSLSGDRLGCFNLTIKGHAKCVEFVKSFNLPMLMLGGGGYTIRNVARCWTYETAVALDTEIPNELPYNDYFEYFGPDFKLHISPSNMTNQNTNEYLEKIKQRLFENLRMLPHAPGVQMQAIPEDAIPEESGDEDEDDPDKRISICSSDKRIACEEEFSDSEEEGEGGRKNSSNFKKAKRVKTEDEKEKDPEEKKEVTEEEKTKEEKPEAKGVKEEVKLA
Description: HDAC inhibitors were screened against recombinant human HDAC1 produced in Hi5 insect cells. The enzyme was cloned with a FLAG tag at the C-terminal of the gene and affinity purified using Anti-FLAG M2 agarose from SIGMA (A2220).
The deacetylase assays were carried out in a 50 μl reaction. HDAC1 (75 ng of enzyme) diluted in 15 μl of reaction buffer (25 mM TrisHC1 (pH 8), 137 mM NaCl, 2.7 mM KCl, 1 mM MgCl2) was mixed with either buffer alone (10 μl) or buffer containing compound (10 μl for 30 minutes at ambient temperature. 25 μM acetylated histone H4 peptide (KI 174 Biomol) diluted in 25 μl of buffer was then added to the reaction and incubated for one hour at ambient temperature. The reaction was stopped by addition of an equal volume (50 μl) Fluor de Lys developer (Biomol) containing Trichostatin A at 2 μM. The reaction was allowed to develop for 30 minutes at ambient temperature and then fluorescence measured at an excitation wavelength of 360 nm and an emission wavelength of 465 nm. IC50 values for HDAC enzyme inhibitors were determined by performing dose response curves with individual compounds and determining the concentration of inhibitor producing fifty percent decrease in the maximal signal (diluent control). • (b) In Vitro Assay of Inhibition of Proliferation in Whole Cells

HCT116 cells = assay: In vitro assay of inhibition of proliferation in whole cells, MTS (Test (b)); assay type: cell-based; conditions: Homo sapiens, HCT-116, 72 hours treatment
Description: Inhibition of proliferation in whole cells was assayed using the Promega cell titer 96 aqueous proliferation assay (Promega #G5421). HCT116 cells were seeded in 96 well plates at 1×10^3 cells/well, and allowed to adhere overnight. They were treated with inhibitors for 72 hours. 20 μl of the tetrazolium dye MTS was added to each well and the plates were reincubated for 3 hours. Absorbance was then measured on a 96 well plate reader at […]. The IC50 values for HDAC inhibitors were determined by performing dose response curves with individual compounds and determining the concentration of inhibitor producing fifty percent decrease in maximal signal (diluent control). • (c) In Vitro Enzyme Assay of Histone Deacetylase Activity in Whole Cells

IC50 (recombinant human HDAC1) [µM] | IC50 (HCT116 cells) [µM] | Structure (SMILES)
0.016 | 0.4 | Nc1ccccc1NC(=O)c1ccc(-c2ncc(CNCCN3CCCC3)cc2Cl)cc1 [2 (8), N-(2-aminophenyl)-4-(3-chloro-5-{[(2-pyrrolidin-1-ylethyl)amino]methyl}pyridin-2-yl)benzamide]
0.009 | 0.16 | CCCCNCc1cnc(-c2ccc(C(=O)Nc3ccccc3N)cc2)c(Cl)c1 [Example 1, N-(2-Aminophenyl)-4-{5-[(butylamino)methyl]-3-chloropyridin-2-yl}benzamide]
0.009 | 0.22 | Nc1ccccc1NC(=O)c1ccc(-c2ncc(C(=O)NCCN3CCCC3)cc2Cl)cc1 [5 (1), N-(2-aminophenyl)-4-[3-chloro-5-(N-2-[pyrrolidin-1-yl]ethyl-carbamoyl)-pyridin-2-yl]benzamide]
